The values below come from US20070259857A1, “Amorphous form of Olanzapine” (priority 2003, published 2007).

The series can be described thus: Storage stability of ground amorphous olanzapine at room temperature, by XRPD analysis. To be noted: ground sample of Example One stored at room temperature for 13 weeks. The class given is physicochemical. Here is the method: Figure Two is an XRPD spectrum of amorphous olanzapine. X-ray powder diffraction (XRPD) was performed on a Bruker D8 advance difractometer, at 25° C. between the angles of 4° and 50° 2 theta.
The sample of ground olanzapine was stored at room temperature for 13 weeks for stability testing using XRPD analysis.

Consider `Cc1cc2c(s1)Nc1ccccc1N=C2N1CCN(C)CC1` [olanzapine, 2-methyl-4-(4-methyl-1-piperazinyl)-10H-thieno[2,3-b][1,5]benzodiazepine], for which the “Stability testing using XRPD analysis: difference in XRPD spectrum between the original and the stored sample” value was “No difference was observed”.
